For 17 compounds, IC50 results are on record in US8735384B2, “Amino heteroaryl compounds as beta-secretase modulators and methods of use” (Amgen Inc., priority 2010, dated 2014).

The term pIC50 denotes the IC50 on a negative log10 scale, so that one unit is a factor of ten.

Each structure is given as a SMILES string. pIC50: −log10 of the molar value. Where two headings read alike, the source gives them in different places.

The test system of assay [1] is Aβ40 in conditioned medium of cells stably expressing Amyloid Precursor Protein (APP). The experiment in a line: In vitro BACE cell-based assay (HEK cell assay), Aβ40 sandwich ELISA. The following applies: Homo sapiens, HEK293, 24 h, inhibition of Aβ40, 24 h incubation, read-out: HEK cell assay (IC50 class). A digest of the protocol:
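Aβ40 in conditioned medium measured after 24 h compound exposure (10-point series, 100 μM or 10 μM start, 0.1% DMSO) of cells stably expressing APP, seeded 40K/well. Detection: pAb40/6E10-biotin sandwich ELISA at 4°C with time-resolved europium read-out; IC50 derived from percent of control.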

In the next assay the target is BACE1 (Homo sapiens, UniProt P56817). The experiment in a line: In vitro enzymatic BACE FRET assay. The format is biochemical. As to conditions: beta secretase enzyme 0.2 nM, FRET substrate 50 nM, pH 4.2. The gist of the method:
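Enzyme activity was measured as release of quenching from a 50 nM fluorophore/quencher peptide spanning the cleavage site, over 1 h. This followed 1 h pre-incubation of 0.2 nM enzyme with compound dilutions at pH 4.2 (acetate, 10% DMSO, genapol). Tris addition ended the reaction before fluorescence was measured.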

[2] abbreviates: read-out: BACE1 FRET assay (IC50 class).

Sequence of BACE1 (P56817 46-501, species assumed): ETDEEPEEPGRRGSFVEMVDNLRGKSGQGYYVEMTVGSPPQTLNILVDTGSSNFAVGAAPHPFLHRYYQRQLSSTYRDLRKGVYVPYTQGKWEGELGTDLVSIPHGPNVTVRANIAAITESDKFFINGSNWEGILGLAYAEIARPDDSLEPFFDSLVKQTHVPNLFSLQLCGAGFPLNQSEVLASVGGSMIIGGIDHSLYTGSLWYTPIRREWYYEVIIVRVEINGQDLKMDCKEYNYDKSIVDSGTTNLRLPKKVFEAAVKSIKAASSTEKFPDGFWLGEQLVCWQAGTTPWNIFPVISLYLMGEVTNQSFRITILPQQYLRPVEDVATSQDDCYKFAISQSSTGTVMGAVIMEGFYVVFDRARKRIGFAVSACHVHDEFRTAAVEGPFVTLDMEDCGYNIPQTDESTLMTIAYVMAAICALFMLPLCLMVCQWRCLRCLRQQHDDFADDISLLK

Regarding `Cc1cccc(C(=O)c2nccs2)c1-c1ccc2nc(N)c(N3CCOCC3)cc2c1` [Example 158, (2-(2-amino-3-morpholinoquinolin-6-yl)-3-methylphenyl)(thiazol-2-yl)methanone], the values for the pIC50 (in assay [1]; at BACE1 (setting [2])) were 5.30 to 6.00 and 6.30 to 7.00, respectively.
With `Cc1cccc(C(=O)N2C(C)CCCC2C)c1-c1ccc2nc(N)c(N3CCOCC3)cc2c1` (stereo not shown) [Example 124, (2-(2-amino-3-morpholinoquinolin-6-yl)-3-methylphenyl)(2,6-dimethylpiperidin-1-yl)methanone], the pIC50 was 5.30 to 6.00 in assay [1] and > 7.00 at BACE1 (setting [2]).
Turning to `CC(C)(C)CCc1cccc(C(=O)N2CCOCC2)c1-c1ccc2nc(N)c(N3CCOCC3)cc2c1` [Example 163, (2-(2-amino-3-morpholinoquinolin-6-yl)-3-(3,3-dimethylbutyl)phenyl)(morpholino)methanone], the negative-log IC50 (pIC50) (in assay [1]; on BACE1 (setting [2])) was > 7.00 in each case.
For `CC(C)(C)CCc1cccc(C(=O)N2CCCC2)c1-c1ccc2nc(N)c(N3CCOCC3)cc2c1` [Example 45, (2-(2-amino-3-morpholinoquinolin-6-yl)-3-(3,3-dimethylbutyl)phenyl)(pyrrolidin-1-yl)methanone], the pIC50 (in assay [1]; at BACE1 (setting [2])) was > 7.00 in each case.
On to `COc1ccc(N(C)C(=O)c2cccc(C)c2-c2ccc3nc(N)c(N4CCOCC4)cc3c2)cc1` [Example 132, 2-(2-amino-3-morpholinoquinolin-6-yl)-N-(4-methoxyphenyl)-N,3-dimethylbenzamide], for which the pIC50 in assay [1] is 6.00 to 6.30; on BACE1 (setting [2]), > 7.00.
For the compound `CCCN(CC1CC1)C(=O)c1cccc(C)c1-c1ccc2nc(N)c(N3CCOCC3)cc2c1` [Example 111, 2-(2-amino-3-morpholinoquinolin-6-yl)-N-(cyclopropylmethyl)-3-methyl-N-propylbenzamide], the pIC50 was < 5.30 in assay [1] and 5.81 at BACE1 (read-out: BACE1 FRET assay (IC50, numeric)).
Turning to `Nc1nc2ccc(-c3ccccc3C(=O)C3CCCCC3)cc2cc1N1CCOCC1` [Example 152, (2-(2-amino-3-morpholinoquinolin-6-yl)phenyl)(cyclohexyl)methanone], the pIC50 in assay [1] is 5.30 to 6.00; at BACE1 (setting [2]), > 7.00.
Turning to `Cc1cccc(C(=O)N2CCCC2)c1-c1ccc2nc(N)c(N3CCOC[C@H]3C)cc2c1` [Example 20, (R)-(2-(2-amino-3-(3-methylmorpholino)quinolin-6-yl)-3-methylphenyl)(pyrrolidin-1-yl)methanone], the pIC50 in assay [1] was 6.00 to 6.30; on BACE1 (setting [2]), > 7.00.
For `COCCC1CCCCN1C(=O)c1cccc(C)c1-c1ccc2nc(N)c(N3CCOCC3)cc2c1` (stereo not shown) [Example 83, (2-(2-amino-3-morpholinoquinolin-6-yl)-3-methylphenyl)(2-(2-methoxyethyl)piperidin-1-yl)methanone] the same measures were 5.30 to 6.00 and 6.30 to 7.00.
In the case of `Cc1cccc(OCCOC(C)C)c1-c1ccc2nc(N)c(N3CCOCC3)cc2c1` [Example 170, 6-(2-(2-isopropoxyethoxy)-6-methylphenyl)-3-morpholinoquinolin-2-amine], the pIC50 in assay [1] was 5.30 to 6.00; on BACE1 (setting [2]), > 7.00.
With `CCCCC(=O)c1cccc(C)c1-c1ccc2nc(N)c(N3CCOCC3)cc2c1` [Example 180, 1-(2-(2-amino-3-morpholinoquinolin-6-yl)-3-methylphenyl)pentan-1-one], the values for the pIC50 (in assay [1]; on BACE1 (setting [2])) were 5.30 to 6.00 and > 7.00, respectively.
As for `Cc1cccc(C#CC(C)(C)C)c1-c1ccc2nc(N)c(N3CCOCC3)cc2c1` [Example 40, 6-(2-(3,3-dimethylbut-1-ynyl)-6-methylphenyl)-3-morpholinoquinolin-2-amine], the pIC50 in assay [1] is 5.30 to 6.00; at BACE1 (setting [2]) it was > 7.00.
As for `CC(C)(C)C#Cc1ccccc1-c1ccc2nc(N)c(N3CCOCC3)cc2c1` [Example 160, 6-(2-(3,3-dimethylbut-1-ynyl)phenyl)-3-morpholinoquinolin-2-amine], the pIC50 in assay [1] is < 5.30; at BACE1 (setting [2]), 6.00 to 6.30.
For `Cc1cccc(C(=O)N2CC(F)(F)C2)c1-c1ccc2nc(N)c(N3CCOCC3)cc2c1` [Example 99, (2-(2-amino-3-morpholinoquinolin-6-yl)-3-methylphenyl)(3,3-difluoroazetidin-1-yl)methanone], in that order: 6.00 to 6.30 and 6.30 to 7.00.
As for `Cc1cccc(C(=O)c2cccc(C)c2-c2ccc3nc(N)c(N4CCOCC4)cc3c2)c1` [Example 173, (2-(2-amino-3-morpholinoquinolin-6-yl)-3-methylphenyl)(m-tolyl)methanone], the pIC50 in assay [1] was 5.30 to 6.00; at BACE1 (setting [2]), > 7.00.
As for `Nc1nc2ccc(-c3c(CCc4ccccc4)cccc3C(=O)N3CCCC3)cc2cc1N1CCOCC1` [Example 162, (2-(2-amino-3-morpholinoquinolin-6-yl)-3-phenethylphenyl)(pyrrolidin-1-yl)methanone], the pIC50 (in assay [1]; on BACE1 (setting [2])) was > 7.00 in each case.
As to `Cc1cccc(C(=O)N(C)Cc2cccc3ccccc23)c1-c1ccc2nc(N)c(N3CCOCC3)cc2c1` [Example 135, 2-(2-amino-3-morpholinoquinolin-6-yl)-N,3-dimethyl-N-(naphthalen-1-ylmethyl)benzamide], the pIC50 was 5.30 to 6.00 in assay [1] and 6.30 to 7.00 at BACE1 (setting [2]).
